The values that follow come from PubChem BioAssay AID1259407 (Chemical Carcinogenesis Research Information System (CCRIS), 2018).

This series has as its system CCRIS mutagenicity, Ames/micronucleus/aberration tests. The series can be described thus: CCRIS mutagenicity studies.
The mark [1] stands for this setting: Test System: AMES SALMONELLA TYPHIMURIUM, Strain/Indicator: TA98, Metabolic Activation: NONE, Method: PREINCUBATION
The mark [2] stands for this setting: Test System: AMES SALMONELLA TYPHIMURIUM, Strain/Indicator: TA100, Metabolic Activation: NONE, Method: PREINCUBATION
Where [3] appears, read: Test System: AMES SALMONELLA TYPHIMURIUM, Strain/Indicator: TA1535, Metabolic Activation: NONE, Method: PREINCUBATION
The mark [4] stands for this setting: Test System: AMES SALMONELLA TYPHIMURIUM, Strain/Indicator: TA1537, Metabolic Activation: NONE, Method: PREINCUBATION
The mark [5] stands for this setting: Test System: AMES SALMONELLA TYPHIMURIUM, Strain/Indicator: TA98, Metabolic Activation: NONE, Method: STANDARD PLATE.
[6] abbreviates: Test System: AMES SALMONELLA TYPHIMURIUM, Strain/Indicator: TA100, Metabolic Activation: NONE, Method: STANDARD PLATE.
[7] abbreviates: Test System: AMES SALMONELLA TYPHIMURIUM, Strain/Indicator: TA100, Metabolic Activation: S-9, Method: STANDARD PLATE.
The mark [8] stands for this setting: Test System: AMES SALMONELLA TYPHIMURIUM, Strain/Indicator: TA1535, Metabolic Activation: NONE, Method: STANDARD PLATE.

Active and inactive are the calls of the source. How the calls were made is not given here.

`COc1cccc([N+](=O)[O-])c1`: the mutagenic call reads like this: under setting [1], “inactive; negative”; (Test System: AMES SALMONELLA TYPHIMURIUM, Strain/Indicator: TA98, Metabolic Activation: RAT, LIVER, S-9, KANECHLOR 500, Method: PREINCUBATION) “inactive; negative”; (Test System: AMES SALMONELLA TYPHIMURIUM, Strain/Indicator: TA98, Method: PREINCUBATION) “inactive; negative”; under setting [2], “inactive; negative”; (Test System: AMES SALMONELLA TYPHIMURIUM, Strain/Indicator: TA100, Metabolic Activation: RAT, LIVER, S-9, KANECHLOR 500, Method: PREINCUBATION) “inactive; negative”; (Test System: AMES SALMONELLA TYPHIMURIUM, Strain/Indicator: TA100, Method: PREINCUBATION) “inactive; negative”. The mutagenic call reads like this: under setting [3], “inactive; negative”; (Test System: AMES SALMONELLA TYPHIMURIUM, Strain/Indicator: TA1535, Method: PREINCUBATION) “inactive; negative”; under setting [4], “inactive; negative”; (Test System: AMES SALMONELLA TYPHIMURIUM, Strain/Indicator: TA1537, Method: PREINCUBATION) “inactive; negative”; (Test System: AMES SALMONELLA TYPHIMURIUM, Strain/Indicator: TA1538, Metabolic Activation: NONE, Method: PREINCUBATION) “inactive; negative”; (Test System: AMES SALMONELLA TYPHIMURIUM, Strain/Indicator: TA1538, Method: PREINCUBATION) “inactive; negative”.

Consider `BrCc1c2ccccc2cc2ccccc12`, for which the mutagenic call runs as follows: under setting [5], “active; positive”; under setting [6], “active; positive”.

With `Clc1nncc2cnccc12`, the mutagenic call by setting is: under setting [1], “inactive; negative”; (Test System: AMES SALMONELLA TYPHIMURIUM, Strain/Indicator: TA98, Metabolic Activation: RAT, LIVER, S-9, PCB, Method: PREINCUBATION) “inactive; negative”; under setting [2], “inactive; negative”; (Test System: AMES SALMONELLA TYPHIMURIUM, Strain/Indicator: TA100, Metabolic Activation: RAT, LIVER, S-9, PCB, Method: PREINCUBATION) “inactive; negative”.

In the case of `Cc1cccc2cc3c(ccc4ccccc43)cc12`, the mutagenic call runs as follows: (Test System: AMES SALMONELLA TYPHIMURIUM, Strain/Indicator: TA100, Metabolic Activation: RAT, INTACT HEPATOCYTES, AROCLOR 1254, Method: PREINCUBATION) “active; positive”; (Test System: AMES SALMONELLA TYPHIMURIUM, Strain/Indicator: TA100, Metabolic Activation: RAT, NADPH-FORTIFIED HOMOGENIZED HEPATOCYTES, AROCLOR 1254, Method: PREINCUBATION) “active; positive”; (Test System: AMES SALMONELLA TYPHIMURIUM, Strain/Indicator: TA100, Metabolic Activation: RAT, SONICATED HEPATOCYTES, AROCLOR 1254, Method: PREINCUBATION) “active; positive”.

As for `Nc1snc2cc(Cl)ccc12`, the mutagenic call under setting [5] is “inactive; negative”; the mutagenic call (Test System: AMES SALMONELLA TYPHIMURIUM, Strain/Indicator: TA98, Metabolic Activation: S-9, Method: STANDARD PLATE) is “inactive; negative”; the mutagenic call under setting [6] is “inactive; negative”; the mutagenic call under setting [7] was “active; positive”; the mutagenic call under setting [8] was “inactive; negative”; the mutagenic call (Test System: AMES SALMONELLA TYPHIMURIUM, Strain/Indicator: TA1535, Metabolic Activation: S-9, Method: STANDARD PLATE) is “inactive; negative”. Also, the mutagenic call by setting is: (Test System: AMES SALMONELLA TYPHIMURIUM, Strain/Indicator: TA1537, Metabolic Activation: NONE, Method: STANDARD PLATE) “inactive; negative”; (Test System: AMES SALMONELLA TYPHIMURIUM, Strain/Indicator: TA1537, Metabolic Activation: S-9, Method: STANDARD PLATE) “active; positive”.

`Fc1cc2cccnc2c2ccccc12`: the mutagenic call (Test System: AMES SALMONELLA TYPHIMURIUM, Strain/Indicator: TA100, Metabolic Activation: RAT, LIVER, S-9, PHENOBARBITAL AND 5,6-BENZOFLAVONE, Method: PREINCUBATION) is “active; positive”.

Regarding `O=[N+]([O-])c1ccc2c3c(ccc([N+](=O)[O-])c13)-c1ccccc1-2`, the mutagenic call runs as follows: (Test System: AMES SALMONELLA TYPHIMURIUM, Strain/Indicator: TA97, Metabolic Activation: NONE) “active; positive”; (Test System: AMES SALMONELLA TYPHIMURIUM, Strain/Indicator: TA98(1,8-DNP6), Metabolic Activation: NONE) “active; positive”; (Test System: AMES SALMONELLA TYPHIMURIUM, Strain/Indicator: TA98(NR), Metabolic Activation: NONE) “active; positive”; (Test System: AMES SALMONELLA TYPHIMURIUM, Strain/Indicator: TA98, Metabolic Activation: NONE) “active; positive”; (Test System: AMES SALMONELLA TYPHIMURIUM, Strain/Indicator: TA100, Metabolic Activation: NONE) “active; positive”; (Test System: AMES SALMONELLA TYPHIMURIUM, Strain/Indicator: TA1535, Metabolic Activation: NONE) “inactive; negative”. Also, the mutagenic call was “active; positive” (Test System: AMES SALMONELLA TYPHIMURIUM, Strain/Indicator: TA1537, Metabolic Activation: NONE); “active; positive” (Test System: AMES SALMONELLA TYPHIMURIUM, Strain/Indicator: TA1538, Metabolic Activation: NONE); “inactive; negative” (Test System: AMES SALMONELLA TYPHIMURIUM, Strain/Indicator: TA1978, Metabolic Activation: NONE).

As to `Brc1ccccc1`, the mutagenic call runs as follows: (End Point: IN VITRO CHROMOSOMAL ABERRATIONS, Test System: CHINESE HAMSTER OVARY CELLS, Metabolic Activation: NONE) “inactive; negative”; (End Point: IN VITRO CHROMOSOMAL ABERRATIONS, Test System: CHINESE HAMSTER OVARY CELLS, Metabolic Activation: RAT, LIVER, S-9, AROCLOR 1254) “inactive; negative”; (Test System: AMES SALMONELLA TYPHIMURIUM, Strain/Indicator: TA98, Metabolic Activation: HAMSTER, LIVER, S-9, AROCLOR 1254, Method: PREINCUBATION) “inactive; negative”; under setting [1], “inactive; negative”; (Test System: AMES SALMONELLA TYPHIMURIUM, Strain/Indicator: TA98, Metabolic Activation: RAT, LIVER, S-9, AROCLOR 1254, Method: PREINCUBATION) “inactive; negative”; (Test System: AMES SALMONELLA TYPHIMURIUM, Strain/Indicator: TA100, Metabolic Activation: HAMSTER, LIVER, S-9, AROCLOR 1254, Method: PREINCUBATION) “inactive; negative”. The mutagenic call by setting is: under setting [2], “inactive; negative”; (Test System: AMES SALMONELLA TYPHIMURIUM, Strain/Indicator: TA100, Metabolic Activation: RAT, LIVER, S-9, AROCLOR 1254, Method: PREINCUBATION) “inactive; negative”; (Test System: AMES SALMONELLA TYPHIMURIUM, Strain/Indicator: TA1535, Metabolic Activation: HAMSTER, LIVER, S-9, AROCLOR 1254, Method: PREINCUBATION) “inactive; negative”; under setting [3], “inactive; negative”; (Test System: AMES SALMONELLA TYPHIMURIUM, Strain/Indicator: TA1535, Metabolic Activation: RAT, LIVER, S-9, AROCLOR 1254, Method: PREINCUBATION) “inactive; negative”; (Test System: AMES SALMONELLA TYPHIMURIUM, Strain/Indicator: TA1537, Metabolic Activation: HAMSTER, LIVER, S-9, AROCLOR 1254, Method: PREINCUBATION) “inactive; negative”. In addition, the mutagenic call under setting [4] was “inactive; negative” and the mutagenic call (Test System: AMES SALMONELLA TYPHIMURIUM, Strain/Indicator: TA1537, Metabolic Activation: RAT, LIVER, S-9, AROCLOR 1254, Method: PREINCUBATION) is “inactive; negative”.

As for `Cc1ccc2c(c1)c(=NC(=O)CCCCl)sn2C(=O)CCCCl`, under setting [7], the mutagenic call was “inactive; negative”.

Consider `CCNC(=O)N(C=O)CCN(C)C`, for which the mutagenic call under setting [8] is “active; positive”.

For the molecule `O=[N+]([O-])c1c2c(c3ccc4cccc5ccc1c3c45)C=CCC2`, the mutagenic call was “inactive; negative” under setting [5]; “inactive; negative” (Test System: AMES SALMONELLA TYPHIMURIUM, Strain/Indicator: TA98, Metabolic Activation: RAT, LIVER, S-9, AROCLOR 1254, Method: STANDARD PLATE); “inactive; negative” under setting [6]; “inactive; negative” (Test System: AMES SALMONELLA TYPHIMURIUM, Strain/Indicator: TA100, Metabolic Activation: RAT, LIVER, S-9, AROCLOR 1254, Method: STANDARD PLATE).
